What is called melting point is the temperature of the solid-liquid transition. As to `COc1ccc(C(=O)OC2CC3C(=O)NC4(C(=O)NS(=O)(=O)C5CC5)CC4C=CCCCCCC(NC(=O)OC(C)(C)C)C(=O)N3C2)cc1` (stereo not given), the melting point fell in the range of 151 to 153 °C. The value for `CC12CC(=CO)C(=O)C=C1CCC1C2CCC2(C)C1C=CC2(C)O` (stereo not given) was 176 °C. The value for `COc1cc(C(=O)c2ncc3c(OC)cccn23)ccc1N` was 229 °C; that for `Nc1nc(OCCC2CCCCC2)c2[nH]cnc2n1` was 210 °C; that for `CN1CCc2sc(C=C3C(=O)N4C(C(=O)O)=CSC34)cc2C1` (stereo not given) was > 25 °C. As for `CC(=O)SC(CC(=O)c1ccc(Oc2ccc(Br)cc2)cc1)C(=O)O` (stereo not given), the melting point lay within 117 to 118 °C.

`CC=Cc1cccc(Oc2ccccc2Cl)c1OC` returned a melting point of 61 to 62 °C.

The molecule `O=C(O)Cc1c(C(=O)c2ccc(Br)cc2)[nH]c2cc(Cl)ccc12` came in with a melting point of 199 to 201 °C.

`CCOC(=O)c1cn(C2COC2)c2c(C)c(F)c(F)cc2c1=O` showed a melting point of 157 to 165 °C. In turn, `CC(=O)OC1CSC(Oc2ccc(-c3cncc(C)c3)nc2)C(OC(C)=O)C1OC(C)=O` (stereo not given) returned a melting point of 189 to 190 °C. As to `COc1ccc(C(O)(Cc2ccccc2)c2ccccc2)cc1` (stereo not given), the melting point lay within 111 to 112 °C. For the molecule `CSc1nn2c(=O)[nH]c(C)nc2c1S(=O)(=O)c1ccccc1`, the melting point is > 300 °C. The value for `O=C(N[C@H]1CC[C@H](CCN2CCN(c3nccc4c3OCC4)CC2)CC1)C1(O)CCC1` was 250 °C; that for `O=[N+]([O-])c1ccc2c(c1)C(c1ccccc1)=NCC(OP(=O)(N1CCOCC1)N1CCOCC1)=N2` was 208 to 209 °C; that for `CC(C)C[C@@H](C(=O)O)N1C(=O)NC(C(F)(F)F)(C(F)(F)F)C1=O` was 154 to 156 °C. With `C[C@@H](O)c1nccc(N2CCN(c3nc4ccncc4o3)CC2)n1` the figure was 181 to 183 °C. The value for `CC(C)c1ccc(C(=O)NC/C=C/c2ccccc2)cc1` was 142 °C. Take `CCOP(=O)(CCN1CCC(N(C)S(=O)(=O)c2ccc(Nc3nccc(Nc4ccc(F)c(F)c4)n3)cc2)CC1)OCC`: the melting point was in the range of 93 to 96 °C. With `N#CC1(Nc2ccccc2)CCN([C@H]2CCc3ccccc32)CC1` the figure was 157 to 160 °C; with `CCOC(=O)C=Cc1cc(OCc2ccccc2)ccc1-c1ccc(-c2cccnc2)c(C(F)F)c1`, 93 to 95 °C; with `CC(C)c1nc(C(C)C)c(CNC2CCCCC2)c(-c2ccc(F)cc2)c1CO`, 131 to 133 °C. In turn, `NC(=O)C(CC1CCCC1)c1ccc(Cl)c([N+](=O)[O-])c1` (stereo not given) yielded a melting point of 112 to 114 °C. In turn, `CNc1nc(-c2cc3cccc(N(C)S(=O)(=O)c4cccs4)c3[nH]2)cs1` returned a melting point of 162 to 163 °C. The value for `CN1CC=C(c2cc3ccccc3c(=O)[nH]2)CC1` was 222 to 223 °C; that for `CN(C(=O)C1CCC1)c1cccc(-c2ccnc3c(C#N)cnn23)c1` was 157 to 158 °C; that for `CC(=O)Nc1ccc(OC(C)=O)c2cnsc12` was 215 to 216 °C.

Consider `COc1ccc(N(C(=O)CN2C(=O)C(Cc3n[nH]c4ncccc34)C(=O)N(c3ccccc3)c3ccccc32)C(C)C)cc1` (stereo not given), for which the melting point lay within 156 to 158 °C. The molecule `CNC(=O)c1cccc(NC(=O)COc2ccccc2Cl)c1` had a melting point of 172 to 173 °C. With `CCCCCCCCCCCCCCc1ccc(OCC(CO)OCc2ccccc2)c(CCCCCC)c1` (stereo not given) the figure was 32 to 33 °C; with `Cc1ncc(C#N)c(Cl)c1I`, 120 to 122 °C; with `COc1ccc(-c2c(Cl)c(CNC(C)(C)C)nc3sc4c(c23)CCN(Cc2ccccc2)C4)cc1OC`, 134 to 135 °C. With `CC(C)(C)c1c(Cl)nc(Cl)nc1Cl`, the melting point fell in the range of 58 to 59 °C.

In turn, `CC(=O)Nc1ccc(P(=O)(O)O)cc1` gave a melting point of 228 °C. With `Cc1cc(C#N)c(C)c(C(=O)Nc2ccc(Cl)cn2)n1` the figure was 264 °C; with `N#Cc1ccc(N2C(=O)CNC2=O)c2ccccc12`, > 275 °C.

In the case of `CCCCCCCCS(=O)(=O)c1ccc(C#N)c(C#N)c1`, the melting point is 70 to 71 °C. The value for `COC(=O)Cc1cccc(NC(=O)NCC(=O)O)c1` was 136 °C; that for `COc1ccc(CCNC(=O)CCC2(c3ccc(OC)c(OC)c3)SCCCS2)cc1OC` was 135 to 136 °C; that for `CCC[C@H]1CC[C@H](c2ncc(C#N)cn2)CC1` was 74 °C. In the case of `CCCCCNc1cccc2c1C(=O)N(C1(C)CCC(=O)NC1=O)C2=O` (stereo not given), the melting point is 96 to 98 °C. On to `NC(=O)N(O)CCNC(=O)c1cccc(C(=O)c2ccccc2)c1`, for which the melting point fell in the range of 168 to 170 °C. With `Cn1ncc(C(=O)O)c1OCc1ccccc1` the figure was 117 to 122 °C; with `Cc1c(N2CCC(O)CC2)c(F)cc2c(=O)c(C(=O)O)cn(C3CC3)c12`, 234 to 236 °C; with `CC=CCONC(C)=C1C(=O)CC(CCSc2ccc(C(F)(F)F)cc2)CC1=O` (stereo not given), 72 to 73 °C. The value for `CC(=O)c1cc(NS(C)(=O)=O)ccc1F` was 120 to 123 °C; that for `Nc1ccc(S(=O)(=O)N2CCN(c3ccc(F)cc3)CC2)cc1` was 180 to 182 °C; that for `CC(=O)C1=C(CS(=O)c2ccccc2)CC2C3CCC4=CC(=O)CCC4(C)C3=CCC12C` (stereo not given) was 160 to 163 °C. With `CCCn1nc(C)c2c1C1=NC(C)CN1C(C)=N2` (stereo not given) the figure was 85 to 90 °C; with `O=c1[nH]c2cccc(OCCN3CCc4ccccc4C3)c2[nH]1`, 173 to 174 °C. For the molecule `CCc1c(C)sc2nc(C(C)C)c(CO)c(-c3ccc(F)cc3)c12`, the melting point lay within 188 to 191 °C. For `COc1cc2c(cc1O)C1Cc3c(Cl)cc(OC)c(O)c3CN1CC2` (stereo not given), the melting point lay within 136 to 138 °C.

In turn, `COC(=O)c1sc(C)c(C)c1OC` had a melting point of 37 to 39 °C.

`O=C1NC(=O)C2(c3cc(O)c(Cl)cc3F)CCCCC12` (stereo not given) showed a melting point of 140 to 141 °C.

`CC(C)c1cc2c(-c3nc4cnccc4[nH]3)ccc(OC(F)F)c2o1` displayed a melting point of 201 °C. In turn, `Cc1cccc(Nc2ccccc2C=NO)c1C` registered a melting point of 107 to 108 °C. The value for `CCN(CC)CCCCCCCCNc1nc(N)nc(-c2cc(Cl)ccc2Cl)n1` was 101 to 102 °C; that for `Cc1ccc(S(=O)(=O)NCCNC2(c3ccc(Cl)cc3)OC(=O)c3ccccc32)cc1` (stereo not given) was 177 to 179 °C. The value for `CC(C)(C)OC(=O)N1CCn2c(Br)c(-c3cccc(F)c3)c(C(=O)n3ccnc3)c2C1` was 168 to 169 °C; that for `COC(F)(F)c1nc2nc(C)c(F)cc2cc1C(=O)C1C(=O)CCCC1=O` was 143 to 146 °C; that for `CN1C(=O)CC(C)(C)c2cc(C3(C)OCCO3)ccc21` was 81 to 83 °C.

As for `CCOC(=O)C1=C(C)Nc2ccnc(OC(C)C)c2C1c1cccc(C(F)(F)F)c1Cl` (stereo not given), the melting point was 173 to 175 °C. For the molecule `CCOC(=O)c1oc2cccc(C(C)OC)c2c1C` (stereo not given), the melting point lay within 67 to 69 °C. In turn, `CCOC(=O)c1ccc(NCc2cc(Br)ccc2OCc2ccccc2)c(OC)c1` had a melting point of 78 °C. `COc1cc(C)c(C(=O)c2c(OC)cncc2C(F)(F)F)c(OC)c1OC`: the melting point is 103 to 106 °C. With `CN1CCN(c2cccc3c2C[C@H](NC(=O)c2ccc(F)cc2)CC3)CC1` the figure was 189 to 190 °C. Molecule `CCc1nc2c(C)c(Br)c(C)nc2n1Cc1ccc2oc(-c3cccc(F)c3C(=O)O)c(Br)c2c1` gave a melting point of 223 to 225 °C. With `O=[N+]([O-])c1nccn1CCI` the figure was 79 to 82 °C; with `COc1cccc(Nc2nc(-n3nc(C)cc3C)nc3ccccc23)c1`, 193 to 195 °C; with `COc1ccc(NC(=O)Cc2ccc(Cl)cc2)c(OC)c1`, 134 to 135 °C. With `CC(C)(C)S(=O)(=O)NCc1cc(-c2ccc(Cl)c(Cl)c2)n(Cc2ccc(Cl)c(Cl)c2)n1` the figure was 127 °C. With `COc1sc(C)c(CO)c1C` the figure was 55 to 60 °C; with `Clc1cccc(CC[C@H]2CNCCN2)c1`, 93 to 97 °C.

`COC(C)=CC(=O)Nc1cccc(SC)c1` showed a melting point of 70 to 71 °C. `O=C(C=Cc1ccc2c(c1)OCO2)C1C(=O)CC(c2ccccc2)CC1=O` (stereo not given) gave a melting point of 157 to 158 °C. For the molecule `CCNc1c(C(=O)OCC)c(C)nc2nccnc12`, the melting point lay within 72 to 74 °C. With `CN1C(=O)C(NC(=O)CCC2CCCCC2)N=C(c2ccccc2)c2cnccc21` (stereo not given) the figure was 170 to 173 °C; with `CC(C)=CCc1c(O)ccc(CCCc2ccc(O)cc2)c1O`, 115 to 116 °C; with `O=C(O)CCc1ccc2c(c1)C(=O)c1ccccc1CO2`, 128 to 130 °C.

For the molecule `COC(=O)c1ccc(C(C(N)=O)C(C)c2cc(Cl)ccc2N2CCCC(C)C2)cc1` (stereo not given), the melting point lay in the range of 160 to 162 °C. On to `Cc1cc(-c2ccc(Cl)cc2)nc2c(-c3nc(-c4cccc(S(N)(=O)=O)c4)no3)cnn12`, for which the melting point worked out at 275 °C. The value for `Cc1nnc(SCC(=O)C23CC4CC(CC(C4)C2)C3)n1C(C)C` was 119 to 120 °C. On to `CCOC(=O)C(C)=NNc1ccc(F)cc1F`, for which the melting point lay within 153 to 156 °C. The value for `CC(=O)c1cn(Cc2ccc(F)cc2)c2ccccc2c1=O` was 185 to 187 °C; that for `Cc1nc(-c2cccc(Cl)c2)c2cc(C(O)(c3ccc(Cl)cc3)c3cncn3C)ccc2n1` (stereo not given) was 223 °C. In the case of `CC(=S)NCC1CN(c2ccc3c(c2)CC(C(C)(C)C)N3C=O)C(=O)O1` (stereo not given), the melting point was in the range of 219 to 221 °C.

Regarding `O=S(Cc1cccs1)c1ncc(Br)cn1` (stereo not given), the melting point was in the range of 108 to 109 °C. `NCC(O)CN1CCN(C(c2ccc(F)cc2)c2ccc(F)cc2)CC1` (stereo not given) registered a melting point of 45 to 47 °C. On to `CCCCCCCCCCc1nnn(CC(=O)Nc2c(C(C)C)cccc2C(C)C)n1`, for which the melting point lay within 108 to 110 °C.

In the case of `CSc1cc(C)nc(SC)c1NC(=O)CCCCCCCCSc1nc2ccccc2o1`, the melting point was in the range of 123 to 124 °C. The value for `Cc1nc(N2CCN(Cc3cccc4cccnc34)C2=O)sc1C(=O)NCc1cccnc1` was 225 to 228 °C.
